Experimental findings from patent US8598157B2, “5-alkynyl-pyridines” (Boehringer Ingelheim International GmbH, priority 2011, dated 2013) are described below.

The target in one test is PI3Kalpha (Homo sapiens (Human), UniProt P42336). The test can be described thus: Inhibition of PI3Kalpha-induced PIP-2 phosphorylation (filter-binding assay). In kind it is biochemical. Conditions: 33P-ATP, p85alpha/His-p110alpha, read-out: IC50 PI3Kα. The text has this: Inhibition of PI3Kalpha-Induced PIP-2 Phosphorylation
This PI3Kalpha assay provides an IC50 value indicative of the activity of the compounds to inhibit PI3 kinase alpha activity. Inhibition of PI3 kinase would be expected to be indicative of activity in treating conditions of excessive or anomalous cell proliferation, such as cancers. See also J. A. Engelman, Nature Reviews Cancer, 2009, 9, 550-562; A. Carnero, Expert Opin. Investig. Drugs, 2009, 18, 1265-1277 and P. Liu et al., Nature Reviews Drug Discovery, 2009, 8, 627-64.
Method Type: Filter-Binding-Assay
Aliquoted in desired amounts and stored at −80° C. Final assay concentration 25 ng/well • Phosphotyrosin PDGFRbeta-peptide H-CGG-pY-[…]-pY-VPMLDM-NH2 was synthesized by Jerini Peptide Technologies (JPT) and used in a final conc. of 1.7 μM (stock 100 μM prepared in Assay buffer with DTT, aliquoted in desired amounts and stored at −80° C.) • Cold ATP (from Sigma; A-7699), 100 μM stock solution in H2O, use 1 μM final concentration in assay • [33P]-ATP, 370 MBq/ml from Amersham (#AH9968), use 0.5 μCi/well (10 mCi/ml) • Clear 96-well plates from Greiner (#655 162) • Filter plates: Perkin Elmer UniFilter GF/B #6005177 • Microscint 0 (from Perkin Elmer, #6013611) 2. Assay Procedure
The substrate-containing lipid vesicles are dissolved to a concentration of 0.637 mg lipid blend/ml assay buffer (with BSA, freshly added) in 50 ml Falcon->keep on ice, followed by ultrasonication (pulse of 15 sec followed by a pause of 10 sec, 4×). Compounds are serially diluted in assay buffer+6% DMSO and […] of each dilution is added per well of a 96-well plate (compounds are tested in duplicates) and mixed with 30 μl of the lipid vesicles containing PDGFR-Peptide ([…]) and PI3K alpha (25 ng/well final). The mixture is then incubated for 20 minutes at room temperature. Subsequently, 20 μl of assay buffer containing […] cold ATP and 0.5 μCi/20 μl 33P-ATP are added. The plates are then incubated at room temperature for 120 minutes (shaking with 300 rpm).
The reaction mix is transferred onto filter plates using “filtermate harvester” from Packard: filter plates are rinsed with PBS, then the reaction mix is filtered onto the filter plate, washed 5 times with PBS and are allowed to dry for 30-60 minutes at 50° C.
The plate bottom is sealed with Perkin Elmer white adhesive foil and 25 μl/well Microscint( ) are added, the top is covered with transparent adhesive foil and the plate is measured with Wallac Trilux 1450 Microbeta Counter.
As positive control serve wells containing vehicle controls (1% DMSO in assay buffer), showing non-inhibited kinase activity (high values). Wells containing assay buffer instead of enzyme can serve as control for background activity (low values).
Calculate IC50 values using the Smiley program (based on GrapPad Prism)

A further test concerns H460 cells. The test can be described thus: alamarBlue H460 cell assay (antiproliferative/cytotoxicity). The test is classed as cell-based. As to conditions: NCI-H460; H460 human lung carcinoma cells. An excerpt: (§1) The H460, MB453, U87, MCF7 and BT474 alamarBlue cell assays provide EC50 values indicative of the antiproliferative or cytotoxic effects of the compounds to respectively the H460 (human non small cell line cancer), MB-453 (breast cancer cell line), U87 (glioblastoma cell line), MCF7 (breast cancer cell line) and BT474 (breast cancer cell line). As known in the field, antiproliferative or cytotoxic effect against this cell lines would be expected to be indicative of activity in treating lung, breast and brain cancers. See R. Marone R et al. Biochim. Biophys. Acta. 2008 January; 1784(1):159-85. S. Yaguchi et al., J. Natl. Cancer Inst. 2006 Apr. 19; 98(8):545-56.
(§2) Method Type: Antiproliferative/Cytotoxicity
(§3) alamarBlue® is designed to provide a rapid and sensitive measure of cell proliferation and cytotoxicity in various human and animal cell lines. The assay is based on the reduction of alamarBlue in the reducing environment of living (metabolically active) cells. In the presence of added cytotoxic or antiproliferative compounds, the innate metabolic activity ceases.
(§4) AlamarBlue is soluble and stable in culture medium. Measurements are made fluorometrically by exciting at 530-560 nm and measuring emission at 590 nm. In reporting percent alamarBlue reduction by monitoring fluorescence, data are expressed as fluorescence emission intensity units as a function of time of incubation.
(§5) 3. Equipment • 96-well plates, flat bottom (Falcon, Cat. No.: 353072) • 96-well plates, U-shaped (Costar, Cat. No.: 3799) • CO2-Incubator • Microplate Reader, Spectramax Plus, Molecular Devices 4. Typical Procedure • Day 0: Seed 3000 BT-474 cells (IMDM/5% FCS, 1% NEAA, 1% Sodiumpyruvat) in 150 μl medium into a 96-well plate, flat bottom (include mediumblank). Incubate plates at 37° C. in a CO2 incubator overnight. • Day 1: Dilute compounds to a concentration 40 μM->1:3 in medium, 10 dilution steps, in 96-well plates. • Add 50 μl per well of each dilution (total volume per well 200 μl; final conc. of cpds: 10 μM->1:3). If required, test further dilutions. • All concentrations are tested in duplicates. • Controls: Cells w/o cpd. (+50 μl medium/DMSO). • Cells are incubated with compounds for 5-6 days. • Day 6 or 7: Add 25 μl of alamarBlue solution to each well and incubate for 8 hours at 37° C. Measure fluorescence by exciting at 530-560 nm and measuring emission at 590 nm. 5. Evaluation • Subtract average value for medium blank from sample readings • Calculate EC50 using GraphPad Prism (Fifty)
Background: The colour change of resazurin is a common sign of viable cells or microbes.

A further test concerns MB453 cells. The test can be described thus: alamarBlue MB453 cell assay (antiproliferative/cytotoxicity). In kind it is cell-based. Conditions: Homo sapiens; MDA MB 453 breast cancer cell line.
Text: as §1, §2, §3, §4, §5

Another test relates to U87 cells. The test can be described thus: U87 cell assay (antiproliferative/cytotoxicity). The test is classed as cell-based. Conditions: U-87MG human glioblastoma cells.
Text: as §1, §2, §3, §4, §5

Another test has as its system BT474 cells. Briefly: alamarBlue BT474 cell assay (antiproliferative/cytotoxicity). The test is classed as cell-based. As to conditions: BT-474 human breast cancer cell line.
Text: as §1, §2, §3, §4, §5

PI3Kalpha, sequence (P42336 whole entry): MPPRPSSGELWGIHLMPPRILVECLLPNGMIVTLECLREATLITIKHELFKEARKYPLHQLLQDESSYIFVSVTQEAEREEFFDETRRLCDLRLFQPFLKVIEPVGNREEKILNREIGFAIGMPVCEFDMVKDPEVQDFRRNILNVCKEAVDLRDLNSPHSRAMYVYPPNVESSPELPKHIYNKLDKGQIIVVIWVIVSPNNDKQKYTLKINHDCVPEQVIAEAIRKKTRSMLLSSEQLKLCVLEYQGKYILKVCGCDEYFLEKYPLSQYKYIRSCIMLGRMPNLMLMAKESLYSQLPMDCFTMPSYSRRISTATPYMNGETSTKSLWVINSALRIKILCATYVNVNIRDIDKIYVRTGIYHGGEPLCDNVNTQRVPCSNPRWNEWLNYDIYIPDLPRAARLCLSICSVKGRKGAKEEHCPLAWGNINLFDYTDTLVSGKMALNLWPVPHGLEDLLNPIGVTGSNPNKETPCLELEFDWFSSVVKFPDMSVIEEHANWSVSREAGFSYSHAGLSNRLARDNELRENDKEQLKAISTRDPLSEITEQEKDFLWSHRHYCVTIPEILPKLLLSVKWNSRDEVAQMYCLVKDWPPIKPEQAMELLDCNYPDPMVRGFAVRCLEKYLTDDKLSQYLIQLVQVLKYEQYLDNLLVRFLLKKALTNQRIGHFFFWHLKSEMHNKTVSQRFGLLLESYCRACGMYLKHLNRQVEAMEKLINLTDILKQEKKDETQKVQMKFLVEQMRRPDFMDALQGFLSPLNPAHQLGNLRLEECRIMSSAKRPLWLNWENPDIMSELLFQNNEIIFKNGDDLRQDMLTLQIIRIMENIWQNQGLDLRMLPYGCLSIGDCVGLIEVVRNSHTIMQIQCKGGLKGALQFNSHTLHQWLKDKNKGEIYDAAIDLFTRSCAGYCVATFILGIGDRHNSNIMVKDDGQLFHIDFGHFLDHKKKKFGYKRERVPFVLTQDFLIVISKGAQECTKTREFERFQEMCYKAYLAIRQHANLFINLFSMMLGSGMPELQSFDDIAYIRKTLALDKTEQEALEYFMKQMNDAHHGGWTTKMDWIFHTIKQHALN

Broadly, the IC50 is the midpoint of a concentration-inhibition curve. In the case of `CCc1ncnc(NC)c1C#Cc1cnc(C)c(NS(C)(=O)=O)c1` [Example I-33, N-[5-(4-Ethyl-6-methylamino-pyrimidin-5-ylethynyl)-2-methyl-pyridin-3-yl]-methanesulfonamide], the IC50 at PI3Kalpha is 49 nM.
As a reminder, the EC50 is the concentration needed to bring the measured effect to its halfway point. A higher EC50 goes with a less potent agent. In the case of `CCc1nc(N)nc(N2CCC(O)CC2)c1C#Cc1cnc(C)c(NS(C)(=O)=O)c1` [Example I-35, N-{5-[2-Amino-4-ethyl-6-(4-hydroxy-piperidin-1-yl)-pyrimidin-5-ylethynyl]-2-methyl-pyridin-3-yl}-methanesulfonamide], the half-maximal inhibitory concentration (IC50) on PI3Kalpha is 5 nM. The same compound showed an EC50 in the test on H460 cells of 25000 nM.
`CCc1nc(N)nc(N2CCCCC2)c1C#Cc1cnc(C)c(NS(C)(=O)=O)c1` [Example I-36, N-[5-(2-Amino-4-ethyl-6-piperidin-1-yl-pyrimidin-5-ylethynyl)-2-methyl-pyridin-3-yl]-methanesulfonamide]: the IC50 at PI3Kalpha turned out to be 5 nM.
Take `CCc1ncnc(N2CCC(C)(O)CC2)c1C#Cc1cnc(C)c(NS(C)(=O)=O)c1` [Example I-42, N-{5-[4-Ethyl-6-(4-hydroxy-4-methyl-piperidin-1-yl)-pyrimidin-5-ylethynyl]-2-methyl-pyridin-3-yl}-methanesulfonamide]: the IC50 on PI3Kalpha came out at 0.55 nM. Moreover, the EC50 in the test on H460 cells was determined as 295 nM.
On the same counts, the results for `CCc1nc(N)nc(N2CCC(C)(O)CC2)c1C#Cc1cnc(C)c(NS(C)(=O)=O)c1` [Example I-43, N-{5-[2-Amino-4-ethyl-6-(4-hydroxy-4-methyl-piperidin-1-yl)-pyrimidin-5-ylethynyl]-2-methyl-pyridin-3-yl}-methanesulfonamide] are 3 nM and 3670 nM.
The corresponding values for `CCc1ncnc(N2CCCCC2)c1C#Cc1cnc(C)c(NS(C)(=O)=O)c1` [Example I-44, N-[5-(4-Ethyl-6-piperidin-1-yl-pyrimidin-5-ylethynyl)-2-methyl-pyridin-3-yl]-methanesulfonamide] are 2 nM and 117 nM.
In the case of `Cc1ncc(C#Cc2c(C)ncnc2NC(C)C)cc1NS(=O)(=O)c1ccccc1` [Example I-59, N-[5-(4-Isopropylamino-6-methyl-pyrimidin-5-ylethynyl)-2-methyl-pyridin-3-yl]-benzenesulfonamide], the IC50 at PI3Kalpha worked out at 6 nM. The EC50 in the test on H460 cells was determined as 723 nM; in the test on MB453 cells, 1930 nM; in the test with U87 cells, 1000 nM; with BT474 cells, 5000 nM.
Turning to `Cc1ncc(C#Cc2c(C)ncnc2N2CCOC[C@H]2C)cc1NS(=O)(=O)c1ccccc1` [Example I-69, N-{2-Methyl-5-[4-methyl-6-((R)-3-methyl-morpholin-4-yl)-pyrimidin-5-ylethynyl]-pyridin-3-yl}-benzenesuIfonamide], the IC50 at PI3Kalpha worked out at 2 nM. In the test with BT474 cells, this compound showed an EC50 of 749 nM.
Take `Cc1ncc(C#Cc2c(C)ncnc2N2CCOC[C@@H]2C)cc1NS(=O)(=O)c1ccccc1` [Example I-70, N-{2-Methyl-5-[4-methyl-6-((S)-3-methyl-morpholin-4-yl)-pyrimidin-5-ylethynyl]-pyridin-3-yl}-benzenesulfonamide]: the IC50 on PI3Kalpha was 0.2 nM. Besides, the EC50 in the test on BT474 cells worked out at 615 nM.
`Cc1ncc(C#Cc2c(C)ncnc2N(C)CC2CCOC2)cc1NS(=O)(=O)c1ccccc1` (centres unmarked) [Example I-72, N-(2-Methyl-5-{4-methyl-6-[methyl-(tetrahydro-furan-3-ylmethyl)-amino]-pyrimidin-5-ylethynyl}-pyridin-3-yl)-benzenesulfonamide]: the IC50 at PI3Kalpha amounted to 8 nM. The compound further registered an EC50 with BT474 cells of 5160 nM.
For the compound `Cc1ncc(C#Cc2c(C)ncnc2N2CCCOCC2)cc1NS(=O)(=O)c1ccccc1` [Example I-73, N-[2-Methyl-5-(4-methyl-6-[1,4]oxazepan-4-yl-pyrimidin-5-ylethynyl)-pyridin-3-yl]-benzenesulfonamide], the IC50 at PI3Kalpha is 2 nM. Also, a half-maximal response with BT474 cells (EC50) required 1940 nM.
Consider `CCc1ncnc(N2CCOCC2)c1C#Cc1cnc(OC)c(NS(C)(=O)=O)c1` [Example I-75, N-[5-(4-Ethyl-6-morpholin-4-yl-pyrimidin-5-ylethynyl)-2-methoxy-pyridin-3-yl]-methanesulfonamide], for which the 50% inhibitory concentration (IC50) on PI3Kalpha is 1 nM. This compound also came in with an EC50 with BT474 cells of 247 nM.
For the compound `CCc1ncnc(N2CCOCC2)c1C#Cc1cnc(OC)c(NS(=O)(=O)CC)c1` [Example I-76, Ethanesulfonic acid [5-(4-ethyl-6-morpholin-4-yl-pyrimidin-5-ylethynyl)-2-methoxy-pyridin-3-yl]-amide], at PI3Kalpha, the IC50 turned out to be 2 nM. In the test on BT474 cells, the response was half-maximal at 342 nM (EC50).
For the compound `CCc1ncnc(N2CCOCC2)c1C#Cc1cnc(OC)c(NS(=O)(=O)C2CC2)c1` [Example I-77, Cyclopropanesulfonic acid [5-(4-ethyl-6-morpholin-4-yl-pyrimidin-5-ylethynyl)-2-methoxy-pyridin-3-yl]-amide], the IC50 on PI3Kalpha was determined as 1 nM. The compound further showed an EC50 in the test with BT474 cells of 263 nM.
The corresponding values for `CCc1ncnc(N2CCOCC2)c1C#Cc1cnc(OC)c(NS(=O)(=O)CCOC)c1` [Example I-78, 2-Methoxy-ethanesulfonic acid [5-(4-ethyl-6-morpholin-4-yl-pyrimidin-5-ylethynyl)-2-methoxy-pyridin-3-yl]-amide] are 2 nM and 469 nM.
On the same counts, the results for `CCc1ncnc(N2CCOCC2)c1C#Cc1cnc(OC)c(NS(=O)(=O)c2cccs2)c1` [Example I-79, Thiophene-2-sulfonic acid [5-(4-ethyl-6-morpholin-4-yl-pyrimidin-5-ylethynyl)-2-methoxy-pyridin-3-yl]-amide] are 0.75 nM and 20 nM.
For `CCc1ncnc(N2CCOCC2)c1C#Cc1cnc(OC)c(NS(=O)(=O)c2ccco2)c1` [Example I-80, Furan-2-sulfonic acid [5-(4-ethyl-6-morpholin-4-yl-pyrimidin-5-ylethynyl)-2-methoxy-pyridin-3-yl]-amide], the IC50 at PI3Kalpha is 0.55 nM. This compound yielded an EC50 in the test on BT474 cells of 40 nM.
